≈ marks a conversion by molar mass, not a printed value.

Data set [1] in a line: Half life in human. The data set is classed as ADME, organism-based. The conditions noted are these: in vivo.
A short description of data set [2]: Tmax in human. Conditions: in vivo. The data set is classed as ADME, organism-based.
In data set [3] the test system is Mycobacterium tuberculosis. Briefly: Antimicrobial activity against compound-susceptible Mycobacterium tuberculosis. The class given is functional.
Data set [4] has as its system Mycobacterium tuberculosis. Briefly: microbe, parasite or virus in culture.
Description: Antimicrobial activity against Mycobacterium tuberculosis
A short description of data set [5]: Plasma protein binding in human at 0.1 to 2.5 ug/ml by ultracentrifugation. The data set is classed as ADME, cell-free. The conditions noted are these: read-out: PPB (converted).
Data set [6] is described as follows: Plasma protein binding in Beagle dog at 0.1 to 2.5 ug/ml by ultracentrifugation. The class given is ADME, cell-free, Canis lupus familiaris. Conditions: read-out: PPB (converted).
A short description of data set [7]: Plasma protein binding in Fischer rat at 0.1 to 2.5 ug/ml by ultracentrifugation. The conditions noted are these: read-out: PPB (converted). The data set is classed as ADME, cell-free.
Data set [8] can be described thus: Plasma protein binding in CD2F1 mouse at 0.1 to 2.5 ug/ml by ultracentrifugation. The data set is classed as ADME, cell-free. The conditions noted are these: read-out: PPB (converted).
The nature of data set [9]: Half life in healthy human. The class given is ADME, organism-based. Conditions: in vivo.
A short description of data set [10]: Tmax in healthy human. The class given is ADME, organism-based. Conditions: in vivo.
Data set [11] is described as follows: Drug excretion in feces of healthy human. The data set is classed as ADME. The conditions noted are these: faeces, read-out: Activity.
Data set [12] can be described thus: Drug excretion in urine of healthy human. The data set is classed as ADME, tissue-based. The conditions noted are these: read-out: Activity.
Data set [13] is described as follows: Oral bioavailability in healthy human at 400 mg/kg, po. Conditions: in vivo. The data set is classed as ADME, organism-based.
A short description of data set [14]: AUC in healthy human at 400 mg/kg, po. The data set is classed as ADME, organism-based. On the set-up: dose 400 mg/kg, route oral. Conditions: plasma.
A short description of data set [15]: Drug excretion in urine of healthy human at 800 mg/kg. The data set is classed as ADME, organism-based. On the set-up: dose 800 mg/kg. Conditions: read-out: Activity.
Data set [16] in a line: Drug excretion in feces of healthy human at 800 mg/kg. The data set is classed as ADME, organism-based. The arrangement: dose 800 mg/kg. Conditions: faeces, read-out: Activity.
Data set [17] deals with Mycobacterium tuberculosis. The data set is classed as functional.
Data set [18] is described as follows: clinical. The conditions noted are these: human, in vivo, po, 400 mg/kg.
Description: Tmax in patients with pulmonary tuberculosis at 400 mg/kg, po
Data set [19] deals with Mycobacterium tuberculosis. Briefly: microbe, parasite or virus in culture. The source holds these as a separate data set.
Description: Antimicrobial activity against rifampicin-sensitive Mycobacterium tuberculosis
A short description of data set [20]: Renal excretion in healthy human at 400 mg/kg, po administered as single dose. The data set is classed as ADME, organism-based, Kidney. The arrangement: dose 400 mg/kg, route oral. The conditions noted are these: urine, read-out: Activity.
Data set [21] in a line: clinical. Conditions: human, plasma, po, 400 mg/kg.
Description: Plasma protein binding in healthy human at 400 mg/kg, po
The nature of data set [22]: Oral bioavailability in healthy human at 10 mg/kg, po. The class given is ADME, organism-based. The conditions noted are these: in vivo.
Data set [23] can be described thus: AUC in healthy human at 10 mg/kg, po. The class given is ADME, organism-based. The arrangement: dose 10 mg/kg, route oral. Conditions: plasma.
A short description of data set [24]: Tmax in healthy human at 10 mg/kg, po. The data set is classed as ADME, organism-based. On the set-up: dose 10 mg/kg, route oral. The conditions noted are these: in vivo.
Data set [25] is described as follows: Plasma protein binding in healthy human at 10 mg/kg, po. The class given is ADME, organism-based. The arrangement: dose 10 mg/kg, route oral. The conditions noted are these: read-out: PPB (converted).
Data set [26] has as its system Mycobacterium avium. Briefly: Antimicrobial activity against Mycobacterium avium. The class given is functional.
The nature of data set [27]: clinical. The conditions noted are these: human, in vivo, po, 10 mg/kg.
Data set [28] is described as follows: AUC in healthy human at 600 mg/kg, po. Conditions: plasma. On the set-up: dose 600 mg/kg, route oral. The data set is classed as ADME, organism-based.
Data set [29] is described as follows: Cmax in healthy human at 600 mg/kg, po. Conditions: in vivo. On the set-up: dose 600 mg/kg, route oral. The class given is ADME, organism-based.
Data set [30] in a line: Tmax in healthy human at 600 mg/kg, po. The class given is ADME, organism-based. The conditions noted are these: in vivo. The arrangement: dose 600 mg/kg, route oral.
Data set [31] is described as follows: Half life in healthy human at 600 mg/kg, po. The data set is classed as ADME, organism-based. On the set-up: dose 600 mg/kg, route oral. Conditions: in vivo.
Data set [32] is described as follows: Plasma protein binding in healthy human at 600 mg/kg, po. The class given is ADME, organism-based. The arrangement: dose 600 mg/kg, route oral. Conditions: read-out: PPB (converted).
The nature of data set [33]: Ratio of AUC to MIC against Mycobacterium avium. The data set is classed as functional.

As for `COc1nc2ccc(Br)cc2cc1[C@@H](c1ccccc1)[C@@](O)(CCN(C)C)c1cccc2ccccc12` [BEDAQUILINE], the half-life in [1] is 24 h. Besides, the Tmax in [2] was found to be 5 h. The compound further displayed an MIC in data set [3] of 0.03 µg/mL (≈ 0.054 µM).

Compound `Cc1c(CN2CCN(c3ccc(C(F)(F)F)cc3)CC2)cc(-c2ccccc2)n1NC(=O)c1ccncc1` had an MIC90 in [4] of 0.25 µg/mL (≈ 0.481 µM).

Regarding `C[C@]1(COc2ccc(N3CCC(Oc4ccc(OC(F)(F)F)cc4)CC3)cc2)Cn2cc([N+](=O)[O-])nc2O1`, the MIC in data set [3] came to 0.006 µg/mL (≈ 0.0112 µM).

In [3], `CC(C)=CCC/C(C)=C/CNCCNC1C2CC3CC(C2)CC1C3` (stereo unspecified) [SQ109] displayed an MIC of 0.16 µg/mL (≈ 0.484 µM). Besides, the fraction unbound in data set [5], in [6], in data set [7] and in data set [8] was 0.94 each time.

As to `O=[N+]([O-])c1cn2c(n1)OC[C@@H](OCc1ccc(OC(F)(F)F)cc1)C2` [PRETOMANID], the MIC in data set [3] is 0.015 µg/mL (≈ 0.0418 µM). Moreover, the half-life in [9] was 18 h. Further, the Tmax in data set [10] was determined as 4 h. Besides, the dose excreted amounted to 26% in data set [11] and 65% in data set [12].

Turning to `COc1c(N2C[C@@H]3CCCN[C@@H]3C2)c(F)cc2c(=O)c(C(=O)O)cn(C3CC3)c12` [MOXIFLOXACIN], in data set [13], the bioavailability is 86%. In addition, the AUC in data set [14] amounted to 26900 ng·h/mL. For the same compound, the dose excreted in data set [15] is 20%; in data set [16], 25%. In data set [17], this compound yielded an Activity of 37%. Further, the time to peak (Tmax) in [18] is 1 h. The compound also registered an MIC in data set [19] of 0.25 µg/mL (≈ 0.623 µM).

On to `COc1c(N2CCNC(C)C2)c(F)cc2c(=O)c(C(=O)O)cn(C3CC3)c12` (stereo unspecified) [GATIFLOXACIN], for which, in data set [13], the bioavailability came out at 96%. The dose excreted in data set [20] is 77%. Further, the Tmax in data set [18] stood at 1.5 h. The fraction unbound in data set [21] was 0.8.

`CO[C@H]1/C=C/O[C@@]2(C)Oc3c(C)c(O)c4c(O)c(c(/C=N/N5CCN(C)CC5)c(O)c4c3C2=O)NC(=O)/C(C)=C\C=C\[C@H](C)[C@H](O)[C@@H](C)[C@@H](O)[C@@H](C)[C@H](OC(C)=O)[C@@H]1C` [RIFAMPIN] had a bioavailability in data set [22] of 68%. Besides, in data set [23], the area under the curve (AUC) was 21500 ng·h/mL. Also, the Tmax in [24] was found to be 1.5 h. Besides, the fraction unbound in data set [25] was 0.15. The MIC in [26] and in data set [4] was 0.15 µg/mL (≈ 0.182 µM) throughout. Further, in data set [27], the peak concentration (Cmax) worked out at 8000 ng/mL.

In data set [28], `CO[C@H]1/C=C/O[C@@]2(C)Oc3c(C)c(O)c4c(O)c(c(/C=N/N5CCN(C6CCCC6)CC5)c(O)c4c3C2=O)NC(=O)/C(C)=C\C=C\[C@H](C)[C@H](O)[C@@H](C)[C@@H](O)[C@@H](C)[C@H](OC(C)=O)[C@@H]1C` [RIFAPENTINE] showed an exposure (AUC) of 319000 ng·h/mL. This compound also returned a maximum concentration (Cmax) in data set [29] of 10000 ng/mL. In addition, in data set [30], the Tmax turned out to be 4.8 h. Also, the half-life in data set [31] is 13 h. Moreover, the fraction unbound in data set [32] was 0.03. Moreover, the RatioAUC/MIC in data set [33] was 76.6. The compound also displayed an MIC in data set [19] of 0.02 µg/mL (≈ 0.0228 µM).

As to `CC[C@@H](CO)NCCN[C@@H](CC)CO` [ETHAMBUTOL], the Activity in data set [17] turned out to be 26%.

In general, half-life refers to the time in which the quantity being followed falls by half. Usually Tmax stands for the time from dosing to the highest level. The term bioavailability denotes the share of a dose that reaches the circulation, judged against a reference dose that is usually intravenous. In general, AUC refers to concentration integrated over time. Higher therefore signals more exposure. The Cmax is the highest concentration seen after dosing.

The values are drawn from ChEMBL document CHEMBL1687721, “New drugs against tuberculosis: problems, progress, and evaluation of agents in clinical development” (Antimicrob Agents Chemother, 2009).
